Source: US20240418701A1, “SINGLE MOLECULE IDEN[…] A REACTIVE HETERO-NANOPORE” (priority 2021, published 2024)
Read-outs that look alike come from different tables or passages of the source.

Columns and labels:
[1] = biological target: T1, MspA-PBA (phenylboronic acid modified hetero-octameric (N90C)1(M2)7 MspA) (Mycolicibacterium smegmatis, UniProt A0QR29, D117C/D118N/D120N/D145R/D161R/E166K); format: binding, Mycobacterium smegmatis; conditions: +200 mV; for 1/τoff / 1/τon / Calibration coefficient δ (NMP binding events per unit concentration per min): three independent measurements; for % Ib (percentage blockage) / S.D. (noise amplitude of blockage level) / τoff (mean dwell time) / τon (mean inter-event interval): N=3; for Calibration coefficient δ (NMP binding events per unit concentration per min): sole NMP 300 μM in cis
T1 construct: H6 (hexa-histidine) (C); 3-(maleimide) phenylboronic acid (MPBA) adduct on the thiol of Cys90; made in house; host or cells: E. coli BL21 (DE3) pLysS, co-expression from pETDuet-1
Description: FIG. 46: Definition of event parameters. […] The measurement was carried out as described in Methods in Example 2. The chambers were filled with a 1.5 M KCl buffer (1.5 M KCl, 10 mM MOPS, pH 7.0). A transmembrane potential of +200 mV was continually applied. AMP was added to cis with a final concentration of 300 μM. The open pore current (Ip), the residual current (Ib), the dwell time (τoff) and the inter-event duration (τon) are defined as marked on the trace. The percentage blockage (% Ib) is defined as (Ip−Ib)/Ip. The noise amplitude (S.D.) is defined as the standard deviation of the blockage level.
(§1) NMPs consist of a ribose, a phosphate group and a nucleobase, serving as monomeric units of RNA. […] Experimentally, single channel recording was performed using MspA-PBA in a 1.5 M KCl buffer (1.5 M KCl, 10 mM MOPS, pH 7.0) (Methods in Example 2). A transmembrane potential of +200 mV was continually applied. Four canonical NMPs, adenine mononucleotide (AMP), guanine mononucleotide (GMP), cytosine mononucleotide (CMP) and uracil mononucleotide (UMP) were tested as analytes (FIG. 33d). Either type of NMP was added to cis at a final concentration of 300 μM. Subsequently, successive resistive pulses caused by either type of NMP were immediately observed (FIG. 33d). However, no events were observed when M2 MspA was tested, confirming that the PBA located at the pore constriction is critical in the generation of NMP sensing events (FIG. 44). At this condition, ˜1800 events/h were obtained from each pore. The pore could normally withstand a few hours of continuous measurement. Deoxyribonucleoside monophosphate (dNMP) fails to report any event when sensed by MspA-PBA (FIG. 45). This is expected because dNMPs have no cis-diol structure and can't form the boronate ester which is necessary for sensing. The molecular mechanism of sensing which results from reversible covalent bond formation between an NMP and the PBA at the pore constriction is thus confirmed.
To describe NMP sensing events quantitatively, the event dwell time (τoff), the inter-event interval (τon), the percentage blockage (% Ib=(Ip−Ib)/Ip) and the noise amplitude (S.D.) were derived as described in FIG. 46. Generally, the histograms of τoff and τon show an exponential distribution, and could be fitted to derive the mean time constants τoff or τon, respectively. The histograms of % Ib and S.D. show a Gaussian distribution, which could be fitted to derive the mean percentage blockage % Ib and S.D., respectively. During NMP sensing, by varying the NMP concentrations in cis, the reciprocal of dwell time (1/τoff) remains constant, consistent with a unimolecular dissociation mechanism. Whereas the reciprocal of the inter-event interval (1/τon) linearly correlates with the NMP concentration in cis (Tables 8-11, FIG. 47-50), consistent with a bimolecular model. The dependence of the applied voltage during NMP sensing was investigated using AMP as a representative analyte. […] This is expected because in a pH 7.0 buffer, the phosphate group of NMP is negatively charged and the electrophoretic force applied on the NMP analyte can strongly regulate the rate of event appearance and the event dwell time.

M2 MspA = M2 MspA (Mycolicibacterium smegmatis, UniProt A0QR29, D117N/D118N/D120N/D145R/D161R/E166K); experiment: NMP sensing performed with M2 MspA (control without PBA); format: binding, Mycobacterium smegmatis; conditions: NMP 1 mM in cis, +200 mV
M2 MspA, sequence (A0QR29 28-211 D117N/D118N/D120N/D145R/D161R/E166K): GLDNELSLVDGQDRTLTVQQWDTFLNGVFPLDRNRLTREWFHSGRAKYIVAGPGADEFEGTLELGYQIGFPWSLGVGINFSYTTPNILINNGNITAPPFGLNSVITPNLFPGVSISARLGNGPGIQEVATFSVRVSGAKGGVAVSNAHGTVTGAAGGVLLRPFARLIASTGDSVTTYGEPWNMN
Description: FIG. 44: NMP sensing performed with M2 MspA. (a-d) Representative traces of (a) CMP, (b) UMP, (c) AMP, (d) GMP sensing performed with M2 MspA. All measurements were carried out as described in Methods in Example 2 in a 1.5 M KCl buffer (1.5 M KCl, 10 mM MOPS, pH 7.0). A +200 mV bias was continually applied. NMPs were added to cis with a final concentration of 1 mM for each analyte.
as §1

**Q.** Which results are given for `Nc1nc2c(ncn2[C@@H]2O[C@H](COP(=O)(O)O)[C@@H](O)[C@H]2O)c(=O)[nH]1` [GMP, guanosine-5′-monophosphate]?
**A.** 1/τoff ([1]; NMP 100 μM in cis): 11.5 ± 0.9 s⁻¹; 1/τon ([1]; NMP 100 μM in cis): 0.02 ± 0.07 s⁻¹; 1/τoff ([1]; NMP 200 μM in cis): 10.6 ± 1.4 s⁻¹; 1/τon ([1]; NMP 200 μM in cis): 0.50 ± 0.12 s⁻¹; % Ib (percentage blockage) ([1]; NMP 300 μM in cis): 11.8±0.2%; S.D. (noise amplitude of blockage level) ([1]; NMP 300 μM in cis): 3.02 ± 0.13 pA; τoff (mean dwell time) ([1]; NMP 300 μM in cis): 96.3 ± 10.4 ms; τon (mean inter-event interval) ([1]; NMP 300 μM in cis): 1473.1 ± 44.4 ms; % Ib (percentage blockage) ([1]; NMP 300 μM in cis, listed as G): 11.8 ± 0.2%; 1/τoff ([1]; NMP 300 μM in cis): 10.5 ± 1.1 s⁻¹; 1/τon ([1]; NMP 300 μM in cis): 0.68 ± 0.02 s⁻¹; 1/τoff ([1]; NMP 400 μM in cis): 10.2 ± 0.2 s⁻¹; 1/τon ([1]; NMP 400 μM in cis): 0.83 ± 0.04 s⁻¹; 1/τoff ([1]; NMP 500 μM in cis): 11.4 ± 1.3 s⁻¹; 1/τon ([1]; NMP 500 μM in cis): 1.00 ± 0.04 s⁻¹; Calibration coefficient δ (NMP binding events per unit concentration per min) [1]: 0.136 ± 0.004 µM⁻¹ min⁻¹; binding events with M2 MspA (M2 MspA): No binding events were observed

**Q.** How did the 1/τoff ([1]; NMP 100 μM in cis) turn out when `Nc1ccn([C@@H]2O[C@H](COP(=O)(O)O)[C@@H](O)[C@H]2O)c(=O)n1` [CMP, Cytidine-5′-monophosphate] was run?
**A.** The 1/τoff was 19.0 ± 1.9 s⁻¹.

**Q.** What about the 1/τon ([1]; NMP 100 μM in cis) of the same molecule?
**A.** Its 1/τon is 0.30 ± 0.06 s⁻¹.

**Q.** And the 1/τoff ([1]; NMP 200 μM in cis)?
**A.** The 1/τoff was 20.9 ± 0.3 s⁻¹.

**Q.** And the 1/τon ([1]; NMP 200 μM in cis)?
**A.** Its 1/τon is 0.47 ± 0.05 s⁻¹.

**Q.** And the “% Ib (percentage blockage)” value ([1]; NMP 300 μM in cis)?
**A.** Its value is 7.1±0.2%.

**Q.** What about the “S.D. (noise amplitude of blockage level)” value ([1]; NMP 300 μM in cis) of the same molecule?
**A.** Its value is 3.23 ± 0.09 pA.

**Q.** And the “τoff (mean dwell time)” value ([1]; NMP 300 μM in cis)?
**A.** Its value is 47.6 ± 0.9 ms.

**Q.** What about the “τon (mean inter-event interval)” value ([1]; NMP 300 μM in cis) of the same molecule?
**A.** The value was 1511.6 ± 108.3 ms.

**Q.** And the “% Ib (percentage blockage)” value ([1]; NMP 300 μM in cis, listed as C)?
**A.** The value was 7.1 ± 0.2%.

**Q.** And the 1/τoff ([1]; NMP 300 μM in cis)?
**A.** Its 1/τoff is 21.0 ± 0.4 s⁻¹.

**Q.** What about the 1/τon ([1]; NMP 300 μM in cis) of the same molecule?
**A.** Its 1/τon is 0.66 ± 0.05 s⁻¹.

**Q.** What about the 1/τoff ([1]; NMP 400 μM in cis) of the same molecule?
**A.** Its 1/τoff is 20.5 ± 0.6 s⁻¹.

**Q.** And the 1/τon ([1]; NMP 400 μM in cis)?
**A.** Its 1/τon is 0.86 ± 0.05 s⁻¹.

**Q.** What about the 1/τoff ([1]; NMP 500 μM in cis) of the same molecule?
**A.** Its 1/τoff is 20.6 ± 1.1 s⁻¹.

**Q.** And the 1/τon ([1]; NMP 500 μM in cis)?
**A.** The 1/τon was 1.01 ± 0.13 s⁻¹.

**Q.** What about the “Calibration coefficient δ (NMP binding events per unit concentration per min)” value [1] of the same molecule?
**A.** Its value is 0.133 ± 0.010 µM⁻¹ min⁻¹.

**Q.** And the “binding events with M2 MspA” value (M2 MspA)?
**A.** The value was “No binding events were observed”.

**Q.** Which results are given for `O=c1ccn([C@@H]2O[C@H](COP(=O)(O)O)[C@@H](O)[C@H]2O)c(=O)[nH]1` [UMP, uridine-5′-monophosphate]?
**A.** 1/τoff ([1]; NMP 100 μM in cis): 7.8 ± 0.9 s⁻¹; 1/τon ([1]; NMP 100 μM in cis): 0.28 ± 0.08 s⁻¹; 1/τoff ([1]; NMP 200 μM in cis): 7.4 ± 1.4 s⁻¹; 1/τon ([1]; NMP 200 μM in cis): 0.36 ± 0.02 s⁻¹; % Ib (percentage blockage) ([1]; NMP 300 μM in cis): 8.64±0.09%; S.D. (noise amplitude of blockage level) ([1]; NMP 300 μM in cis): 2.14 ± 0.06 pA; τoff (mean dwell time) ([1]; NMP 300 μM in cis): 130.3 ± 14.8 ms; τon (mean inter-event interval) ([1]; NMP 300 μM in cis): 2097.9 ± 474.7 ms; % Ib (percentage blockage) ([1]; NMP 300 μM in cis, listed as U): 8.64 ± 0.09%; 1/τoff ([1]; NMP 300 μM in cis): 7.7 ± 0.9 s⁻¹; 1/τon ([1]; NMP 300 μM in cis): 0.49 ± 0.08 s⁻¹; 1/τoff ([1]; NMP 400 μM in cis): 8.2 ± 0.4 s⁻¹; 1/τon ([1]; NMP 400 μM in cis): 0.56 ± 0.11 s⁻¹; 1/τoff ([1]; NMP 500 μM in cis): 8.7 ± 0.4 s⁻¹; 1/τon ([1]; NMP 500 μM in cis): 0.68 ± 0.09 s⁻¹; Calibration coefficient δ (NMP binding events per unit concentration per min) [1]: 0.097 ± 0.014 µM⁻¹ min⁻¹; binding events with M2 MspA (M2 MspA): No binding events were observed
